Measurements from ChEMBL document CHEMBL2021784, “Geopyxins A-E, ent-kaurane diterpenoids from endolichenic fungal strains Geopyxis aff. majalis and Geopyxis sp. AZ0066: structure-activity relationships of geopyxins and their analogues” (J Nat Prod, 2012).
Calls of active or inactive are those of the source. No cut-off for these calls is given here.

How the values were obtained:
Type in all cases: functional, cell-based
SF-268 [1] = assay: Cytotoxicity against human SF268 cells after 72 hrs by Alamar blue assay; conditions: SF-268, 72 h
MDA-MB-231 [2] = assay: Cytotoxicity against human MDA-MB-231 cells after 72 hrs by Alamar blue assay; conditions: MDA-MB-231, 72 h
NCI-H460 [3] = assay: Cytotoxicity against human NCI-H460 cells after 72 hrs by Alamar blue assay; conditions: NCI-H460, 72 h
MCF7 [4] = assay: Cytotoxicity against human MCF7 cells after 72 hrs by Alamar blue assay; conditions: MCF7, 72 h
[5] = Cytotoxicity against human PC3M cells after 72 hrs by Alamar blue assay; conditions: PC-3M
MDA-MB-231 [6] = assay: Cytotoxicity against human MDA-MB-231 cells at 5 uM after 72 hrs by Alamar blue assay
PC-3M = assay: Cytotoxicity against human PC3M cells at 5 uM after 72 hrs by Alamar blue assay
NCI-H460 [7] = assay: Cytotoxicity against human NCI-H460 cells at 5 uM after 72 hrs by Alamar blue assay
SF-268 [8] = assay: Cytotoxicity against human SF268 cells at 5 uM after 72 hrs by Alamar blue assay
MCF7 [9] = assay: Cytotoxicity against human MCF7 cells at 5 uM after 72 hrs by Alamar blue assay
Fibroblast = assay: Induction of heat shock response in mouse fibroblasts expressing GFP at 2.5 uM after overnight incubation by fluorescence assay

| SMILES | IC50 (SF-268 [1]) [nM] | IC50 (MDA-MB-231 [2]) [nM] | IC50 (NCI-H460 [3]) [nM] | IC50 (MCF7 [4]) [nM] | IC50 [5] [nM] | Activity (MDA-MB-231 [6]) | Activity (PC-3M) | Activity (NCI-H460 [7]) | Activity (SF-268 [8]) | Activity (MCF7 [9]) | Activity (Fibroblast) |
| --- | --- | --- | --- | --- | --- | --- | --- | --- | --- | --- | --- |
| COc1cccc2c1C(=O)c1c(O)c3c(c(O)c1C2=O)C[C@@](O)(C(=O)CO)C[C@@H]3O[C@H]1C[C@H](N)[C@H](O)[C@H](C)O1 [DOXORUBICIN] | 620 | 580 | 420 | 420 | 240 |  |  |  |  |  |  |
| C[C@]12[C@@H]3CC[C@@H]4C[C@]3(C(=O)[C@@H]4CO)[C@@H](O)C[C@@H]1[C@](C)(C(=O)O)CC[C@@H]2O |  |  |  |  |  | inactive | inactive | inactive | inactive | inactive |  |
| C=C1C(=O)[C@]23C[C@H]1CC[C@H]2[C@]1(C)[C@@H](OC(C)=O)CC[C@@](C)(C(=O)O)[C@H]1C[C@@H]3O | 2370 | 4110 | 3520 | 3480 | 3880 |  |  |  |  |  | inactive |
| C=C1C(=O)[C@]23C[C@H]1CC[C@H]2[C@]1(C)[C@@H](O)CC[C@@](C)(C(=O)O)[C@H]1C[C@@H]3O |  |  |  |  |  | inactive | inactive | inactive | inactive | inactive |  |
| C=C1C(=O)[C@]23C[C@H]1CC[C@H]2[C@]1(C)C(=O)CC[C@@](C)(C(=O)OC)[C@H]1C[C@@H]3O [METHYLGEOPYXIN C] | 1560 | 3380 | 2280 | 1670 | 3630 |  |  |  |  |  | inactive |
| C=C1C(=O)[C@]23C[C@H]1CC[C@H]2[C@]1(C)[C@@H](O)CC[C@@](C)(C(=O)OC)[C@H]1C[C@@H]3O [METHYLGEOPYXIN A] | 720 | 730 | 1080 | 790 | 2270 |  |  |  |  |  | inactive |
| C=C1C(=O)[C@]23C[C@H]1CC[C@H]2[C@]1(C)[C@@H](OC(C)=O)CC[C@@](C)(C(=O)OC)[C@H]1C[C@@H]3O | 660 | 1150 | 820 | 530 | 1540 |  |  |  |  |  | Active |
| C=C1C(=O)[C@]23C[C@H]1C[C@H](O)[C@H]2[C@]1(C)CCC[C@@](C)(C(=O)O)[C@H]1C[C@@H]3O |  |  |  |  |  | inactive | inactive | inactive | inactive | inactive |  |
| C=C1C(=O)[C@]23C[C@H]1CC[C@H]2[C@]1(C)CCC[C@@](C)(C(=O)O)[C@H]1C[C@@H]3O [GEOPYXIN B] | 2350 | 3310 | 2250 | 4320 | 5410 |  |  |  |  |  | Active |
| C=C1C(=O)[C@]23C[C@H]1CC[C@H]2[C@]1(C)[C@@H](OC(C)=O)CC[C@@](C)(C(=O)O)[C@H]1C[C@@H]3OC(C)=O |  |  |  |  |  | inactive | inactive | inactive | inactive | inactive |  |
| COC(=O)[C@]1(C)CC[C@H](O)[C@@]2(C)[C@@H]3CC[C@@H]4C[C@]3(C(=O)[C@@H]4CO)[C@@H](O)C[C@@H]21 |  |  |  |  |  | inactive | inactive | inactive | inactive | inactive |  |
| C=C1C(=O)[C@]23C[C@H]1CC[C@H]2[C@]1(C)CCC[C@@](C)(C(=O)OC)[C@H]1C[C@@H]3O [METHYLGEOPYXIN B] | 690 | 910 | 920 | 630 | 1480 |  |  |  |  |  | inactive |
| C=C1C(=O)[C@]23C[C@H]1CC[C@H]2[C@]1(C)[C@@H](O)[C@@H](O)C[C@@](C)(C(=O)OC)[C@H]1C[C@@H]3O [METHYLGEOPYXIN E] | 1020 | 3810 | 2270 | 2080 | 3990 |  |  |  |  |  | inactive |
| C=C1C(=O)[C@]23C[C@H]1CC[C@H]2[C@]1(C)C(=O)CC[C@@](C)(C(=O)O)[C@H]1C[C@@H]3O |  |  |  |  |  | inactive | inactive | inactive | inactive | inactive |  |
| C=C1C(=O)[C@]23C[C@H]1CC[C@H]2[C@]1(C)[C@@H](O)[C@@H](O)C[C@@](C)(C(=O)O)[C@H]1C[C@@H]3O |  |  |  |  |  | inactive | inactive | inactive | inactive | inactive |  |
| C=C1C(=O)[C@]23C[C@H]1CC[C@H]2[C@]1(C)[C@@H](OC(C)=O)CC[C@@](C)(C(=O)OC)[C@H]1C[C@@H]3OC(C)=O | 1180 | 1930 | 1260 | 1180 | 2310 |  |  |  |  |  | inactive |
